Results taken from publication PMC9841524, “Structure-Based Rational Design of Small α-Helical Peptides with Broad-Spectrum Activity against Multidrug-Resistant Pathogens” (Journal of Medicinal Chemistry, 2022).
Where no end group is shown, it is not given here.

Tested on: S. aureus (ATCC 29213)
Assay: MIC, standard microtiter dilution (CLSI)
Type: cell-based
Conditions: broth microdilution (CLSI), CAMHB, 10^6 CFU/mL, 37 °C, 24 h; highest MIC of three independent experiments in triplicate
Method: (§1) Description of the characteristics and growth conditions of various bacterial strains used in the study are provided in the Supporting Information (Table S3). Antibacterial susceptibility testing was carried out using a standard microtiter dilution method recommended by the clinical and laboratory standard institute (CLSI) and measured as a minimum inhibitory concentration (MIC), the lowest peptide concentration that inhibited bacterial growth. Briefly, the overnight grown cultures in the recommended broth for each bacterial strain were diluted in cation-adjusted Mueller Hinton Broth (CAMHB) to give an inoculum of 10^6 colony-forming units (CFU)/mL. A 2-fold serially diluted test peptide solution (100 μL) was added to the microtiter plates. After adding bacterial suspension (100 μL), the plates were incubated at 37 °C for 24 h, and the MICs were determined. The same protocol was used to determine the MICs in the presence of salts and serum except using the media supplemented with various cationic salts (150 mM NaCl, 4.5 mM KCl, 6 mM NH4Cl, 1 mM MgCl2, and 2 mM CaCl2) or 25% FBS. The data was acquired from three independent assays performed in triplicate.
(§2) The bacterial strains employed in this study were obtained from the American Type Culture Collection (ATCC). Each strain was propagated as recommended by the ATCC, and each strain was stored as a frozen glycerol stock at -80°C. A bacterial colony was grown on the appropriate agar as indicated in Table S1 and was used to inoculate the appropriate broth. The culture was incubated at the appropriate conditions, as mentioned in Table S1. Following the incubation, the culture was diluted to an optical density 625 nm (OD625) of 0.1 in cation adjusted Mueller Hinton Broth (CAMHB), which is equivalent to 1 × 10^8 CFU/mL. The culture was further diluted to 1 × 10^6 CFU/mL, which was used to conduct the MIC determination assay. For the S. pneumoniae strains, CAMHB + 2.5% lysed horse blood was required for the assay. The strains with their […]
(§3) Table S3. Description of the characteristics and growth conditions of various bacterial strains

Question: Which “MIC, S. aureus (ATCC 29213)” value does the source give for RAWRAWWRRA-NH2 [4f] here?
Answer: The value was > 100 µg/mL.

Question: With RWLRRWLRWWR-NH2 [5d] as the substance, how does the “MIC, S. aureus (ATCC 29213)” value read?
Answer: Its value is 25 µg/mL.

Same assay, conditions: value in parentheses (μM); broth microdilution (CLSI), CAMHB, 37 °C, 24 h

Question: With RAWRAWWRRA-NH2 [4f] as the substance, how does the “MIC, S. aureus (ATCC 29213)” value read?
Answer: The value was > 70.74 µM.

Question: For RWLRRWLRWWR-NH2 [5d], which “MIC, S. aureus (ATCC 29213)” value is on record?
Answer: The value was 14.13 µM.

Tested on: E. coli (ATCC 25922)
Assay: not given
Conditions: broth microdilution (CLSI), CAMHB, 10^6 CFU/mL, 37 °C, 24 h; highest MIC of three independent experiments in triplicate
Method: as §1, §2, §3

Question: For RAWRAWWRRA-NH2 [4f], which “MIC, E. coli (ATCC 25922)” value is on record?
Answer: Its value is > 100 µg/mL.

Question: With RWLRRWLRWWR-NH2 [5d] as the substance, how does the “MIC, E. coli (ATCC 25922)” value read?
Answer: The value was 50 µg/mL.

Same assay, conditions: value in parentheses (μM); broth microdilution (CLSI), CAMHB, 37 °C, 24 h

Question: With RAWRAWWRRA-NH2 [4f] as the substance, how does the “MIC, E. coli (ATCC 25922)” value read?
Answer: Its value is > 70.74 µM.

Question: With RWLRRWLRWWR-NH2 [5d] as the substance, how does the “MIC, E. coli (ATCC 25922)” value read?
Answer: Its value is 28.26 µM.

Tested on: MRSA (ATCC BAA-1556)
Assay: not given
Conditions: broth microdilution (CLSI), CAMHB, 10^6 CFU/mL, 37 °C, 24 h; highest MIC of three independent experiments in triplicate
Method: as §1, §2, §3

Question: Which “MIC, MRSA (ATCC BAA-1556)” value does the source give for RAWRAWWRRA-NH2 [4f] here?
Answer: Its value is > 100 µg/mL.

Question: With RWLRRWLRWWR-NH2 [5d] as the substance, how does the “MIC, MRSA (ATCC BAA-1556)” value read?
Answer: The value was 25 µg/mL.

Same assay, conditions: value in parentheses (μM); broth microdilution (CLSI), CAMHB, 37 °C, 24 h

Question: Which “MIC, MRSA (ATCC BAA-1556)” value does the source give for RAWRAWWRRA-NH2 [4f] here?
Answer: The value was > 70.74 µM.

Question: For RWLRRWLRWWR-NH2 [5d], which “MIC, MRSA (ATCC BAA-1556)” value is on record?
Answer: Its value is 14.13 µM.

Tested on: P. aeruginosa (ATCC 27883)
Assay: MIC, standard microtiter dilution (CLSI)
Type: cell-based, Pseudomonas aeruginosa
Conditions: broth microdilution (CLSI), CAMHB, 10^6 CFU/mL, 37 °C, 24 h; highest MIC of three independent experiments in triplicate
Method: as §1, §2, §3

Question: Which “MIC, P. aeruginosa (ATCC 27883)” value does the source give for RAWRAWWRRA-NH2 [4f] here?
Answer: Its value is > 100 µg/mL.

Question: For RWLRRWLRWWR-NH2 [5d], which “MIC, P. aeruginosa (ATCC 27883)” value is on record?
Answer: Its value is 50 µg/mL.

Same assay, conditions: value in parentheses (μM); broth microdilution (CLSI), CAMHB, 37 °C, 24 h

Question: Which “MIC, P. aeruginosa (ATCC 27883)” value does the source give for RAWRAWWRRA-NH2 [4f] here?
Answer: The value was > 70.74 µM.

Question: For RWLRRWLRWWR-NH2 [5d], which “MIC, P. aeruginosa (ATCC 27883)” value is on record?
Answer: Its value is 28.26 µM.

Tested on: K. pneumoniae (ATCCBAA-1705)
Assay: MIC, standard microtiter dilution (CLSI)
Type: cell-based, Klebsiella pneumoniae
Conditions: broth microdilution (CLSI), CAMHB, 10^6 CFU/mL, 37 °C, 24 h; highest MIC of three independent experiments in triplicate
Method: as §1, §2, §3

Question: For RAWRAWWRRA-NH2 [4f], which “MIC, K. pneumoniae (ATCCBAA-1705)” value is on record?
Answer: Its value is > 100 µg/mL.

Question: Which “MIC, K. pneumoniae (ATCCBAA-1705)” value does the source give for RWLRRWLRWWR-NH2 [5d] here?
Answer: The value was 50 µg/mL.

Same assay, conditions: value in parentheses (μM); broth microdilution (CLSI), CAMHB, 37 °C, 24 h

Question: With RAWRAWWRRA-NH2 [4f] as the substance, how does the “MIC, K. pneumoniae (ATCCBAA-1705)” value read?
Answer: The value was > 70.74 µM.

Question: For RWLRRWLRWWR-NH2 [5d], which “MIC, K. pneumoniae (ATCCBAA-1705)” value is on record?
Answer: The value was 28.26 µM.

Tested on: human red blood cells (hRBCs)
Assay: Hemolytic assay
Type: cell-based
Conditions: hRBC suspension 4% in PBS, 2 h, 37 °C, hemoglobin release at 567 nm; 1% Triton X-100 = 100%
Method: The hemolytic activity of all peptides (1a–8d) was determined using hRBC. The assay was conducted by adding 75 μL of 2-fold serially diluted peptides to 75 μL of hRBC suspension (4% in PBS). The plates were incubated for 2 h at 37 °C without agitation. In order to determine the hemolysis at each tested concentration of peptides, the plate was centrifuged, and 100 μL of the supernatant was transferred to another 96-well plate to determine hemoglobin release spectrophotometrically at 567 nm. Percent hemolysis was calculated by the following formula [drawing 1] where A represents the absorbance of the peptide sample at 567 nm and A0 and At represent zero percent and 100% hemolysis determined in phosphate buffer saline and 1% Triton X-100, respectively.

Question: With RAWRAWWRRA-NH2 [4f] as the substance, how does the “HC50 (concentration at which 50% hemolysis was observed)” value read?
Answer: Its value is > 500 µg/mL.

Question: With RWLRRWLRWWR-NH2 [5d] as the substance, how does the “HC50 (concentration at which 50% hemolysis was observed)” value read?
Answer: Its value is 130 µg/mL.

Same assay, conditions: value in parentheses (μM); hRBC 4% in PBS, 2 h, 37 °C, 567 nm

Question: For RAWRAWWRRA-NH2 [4f], which “HC50 (concentration at which 50% hemolysis was observed)” value is on record?
Answer: Its value is > 353.69 µM.

Question: For RWLRRWLRWWR-NH2 [5d], which “HC50 (concentration at which 50% hemolysis was observed)” value is on record?
Answer: Its value is 73.48 µM.

Tested on: not listed separately
Assay: CD spectroscopy, helicity;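 for % of helicity induced by Liposomes: share of the total helicity with liposomes gained over the same peptide in PBS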;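 for % of helicity induced by TFE: share of the total helicity in TFE gained over the same peptide in PBS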
Type: physicochemical
Design: key to Δ[θ]222 induced by TFE / Δ[θ]222 induced by Liposomes: mean residue molar ellipticity, mdeg cm2/(dmol × res)
Conditions: CD at 222 nm, 25 °C, aqueous buffer containing 50% TFE
Method: The CD spectra of peptides were recorded using a Jasco J-1500 CD spectrophotometer (Jasco, Easton, MD) at 25 °C with a 1 mm path length cell. Wavelengths from 190 to 260 nm were scanned with 1.0 nm step resolution, 100 nm/min speed, 0.4 s response time, and 1 nm bandwidth. CD spectra of the peptides were collected and averaged over three scans in 10 mM sodium phosphate buffer (pH 7.2), helix-inducing solvent 50% TFE (v/v), and bacterial mimic liposomes (75 μM lipid). Spectra were corrected by subtracting a baseline spectrum containing only buffer or 50% TFE or liposomes. The mean residue molar ellipticity was calculated using the formula [drawing 3] where Ab222 is the absorbance observed at 222 nm, MRW is the mean residue molecular weight, C is the concentration in mg/mL, and L is the path length.
Table S1. RP-HPLC retention times and CD spectroscopy analysis of the selected peptides Peptide tR (min)a [θ]222b Δ[θ]222 induced by % of helicity inducedc by PBS TFE Liposomes TFE Liposomes TFE Liposomes […]
atR (min) denotes the retention time at 25°C by RP-HPLC. bThe mean residue molar ellipticity [θ] 222 (mdeg cm2/(dmol × res)) at 222 nm was measured at 25 °C in phosphate buffer saline (PBS, pH 7.0), in aqueous buﬀer containing 50% TFE (TFE), or in presence of bacterial membrane mimicking liposomes (peptide:lipid […]
c% helix induced is the increase in the molar ellipticity at 222 nm (in percentage) of a peptide in the presence of TFE or liposomes.

Question: For RAWRAWWRRA-NH2 [4f], which “[θ]222 mean residue molar ellipticity, TFE” value is on record?
Answer: The value was -7441 mdeg cm2/(dmol × res).

Question: Which “[θ]222 mean residue molar ellipticity, TFE” value does the source give for RWLRRWLRWWR-NH2 [5d] here?
Answer: The value was -10148 mdeg cm2/(dmol × res).

Same assay, conditions: CD at 222 nm, 25 °C, bacterial membrane mimicking liposomes, peptide:lipid molar ratio 1:1.05

Question: For RAWRAWWRRA-NH2 [4f], which “[θ]222 mean residue molar ellipticity, Liposomes” value is on record?
Answer: Its value is -4470 mdeg cm2/(dmol × res).

Question: For RWLRRWLRWWR-NH2 [5d], which “[θ]222 mean residue molar ellipticity, Liposomes” value is on record?
Answer: The value was -5800 mdeg cm2/(dmol × res).

Same assay, conditions: CD at 222 nm, 25 °C, phosphate buffer saline pH 7.0

Question: For RAWRAWWRRA-NH2 [4f], which “[θ]222 mean residue molar ellipticity, PBS” value is on record?
Answer: Its value is -3665 mdeg cm2/(dmol × res).

Question: With RWLRRWLRWWR-NH2 [5d] as the substance, how does the “[θ]222 mean residue molar ellipticity, PBS” value read?
Answer: The value was -4099 mdeg cm2/(dmol × res).

Same assay, conditions: difference to PBS; 50% TFE

Question: Which “Δ[θ]222 induced by TFE” value does the source give for RAWRAWWRRA-NH2 [4f] here?
Answer: The value was -3775.

Question: With RWLRRWLRWWR-NH2 [5d] as the substance, how does the “Δ[θ]222 induced by TFE” value read?
Answer: Its value is -6048.

Same assay, conditions: difference to PBS; bacterial membrane mimicking liposomes

Question: With RAWRAWWRRA-NH2 [4f] as the substance, how does the “Δ[θ]222 induced by Liposomes” value read?
Answer: Its value is -805.

Question: With RWLRRWLRWWR-NH2 [5d] as the substance, how does the “Δ[θ]222 induced by Liposomes” value read?
Answer: The value was -1700.

Same assay, conditions: increase in molar ellipticity at 222 nm in the presence of 50% TFE

Question: Which “% of helicity induced by TFE” value does the source give for RAWRAWWRRA-NH2 [4f] here?
Answer: Its value is 50.73%.

Question: For RWLRRWLRWWR-NH2 [5d], which “% of helicity induced by TFE” value is on record?
Answer: The value was 59.60%.

Same assay, conditions: increase in molar ellipticity at 222 nm in the presence of liposomes

Question: For RAWRAWWRRA-NH2 [4f], which “% of helicity induced by Liposomes” value is on record?
Answer: The value was 18.01%.

Question: With RWLRRWLRWWR-NH2 [5d] as the substance, how does the “% of helicity induced by Liposomes” value read?
Answer: Its value is 29.31%.
